Measurements: US7781472B2, “Therapy for the treatment of disease” (TheraVida, Inc., priority 2005, dated 2010)

Legend:
[1] = system: healthy human subject; test: Stimulated saliva flow, case study of tolterodine and pilocarpine (Example 6); format: in vivo; details: 2 mg tolterodine tartrate alone
Method: In this study, the effect of tolterodine, pilocarpine, the combination of the two, and placebo was measured in separate, yet identical, studies in a single individual.
Effect of Tolterodine—A healthy human subject was given a 2 mg dose of tolterodine tartrate and the amount of salivation was measured with time over an 8 hour period. As shown in FIGS. 6 and 7 (♦, diamond), the amount of saliva flow collected over 2 minute periods decreased after dosing and the saliva flow remained low after 3 hrs.
Effect of Dose Ratio Between Tolterodine and Pilocarpine—In this experiment the results of two separate dose ratios between tolterodine and pilocarpine were compared with the results of placebo and administration of tolterodine alone. In one experiment, 2 mg of tolterodine was administered to a healthy individual and saliva flow was measured for 8 hours. Using a similar protocol, 2 mg of tolterodine was administered to a healthy individual at t=0, followed by 5 mg of pilocarpine at t=30 min. Similarly, 2 mg of tolterodine was administered to a healthy individual at t=0, followed by 10 mg of pilocarpine at t=30 min. Finally, the results were compared with the administration of placebo (FIG. 6 (●, closed circle)). […] Therefore, an effective dose ratio for the combination […] and pilocarpine is when 2 mg of tolterodine is combined with 10 mg of pilocarpine.
Effect of Combination of Tolterodine and Pilocarpine—In a separate human study, the combination of tolterodine and pilocarpine was administered to a healthy human subject. To the subject 2 mg of tolterodine followed by 10 mg of pilocarpine were administered with various delays in the administration of pilocarpine. Saliva flow was measured as before.
In one study, 10 mg of pilocarpine was administered to the subject 15 minutes after the administration of 2 mg of tolterodine. Saliva flow was measured as before. In another study, 10 mg of pilocarpine was administered to the subject 22 minutes after the administration of 2 mg of tolterodine. Saliva flow was measured as before. […] Saliva flow was measured as before.

[2] = system: healthy human subject; test: Stimulated salivary flow, case study of oxybutynin and cevimeline alone and combined (Example 5); format: in vivo; details: for Amount of Saliva Collecetd over 2 min: cevimeline 30 mg and/or oxybutynin 5 mg oral, single subject, in g; for amount of saliva flow collected over 2 minute periods after dosing (in words) / time at which saliva flow reached the pre-dose level: single agent alone (oxybutynin HCl 5 mg; cevimeline 30 mg)
Method: In this study, the effect of oxybutynin, cevimeline, the combination of the two, and placebo was measured in separate studies in a single individual.
Effect of Oxybutynin—A healthy human subject was given a 5 mg dose of oxybutynin HCl and the amount of salivation was measured with time over an 8 hour period. As shown in FIG. 5 (●, circle), the amount of saliva flow collected over 2 minutes periods decreased after dosing and the saliva flow remained low after 3 hrs. The amount of saliva flow started increasing after 3 hrs and continued increasing reaching the pre-dose level after 8 hrs post-dosing. The data generated in this study is consistent with the literature data.
Effect of Cevimeline—In a separate human study the effect of administering 30 mg of cevimeline was evaluated in a healthy human subject to ensure that cevimeline indeed increases salivary gland flow. […] The decrease in saliva flow continued until it reached about the normal saliva flow and pre-dosing level after about 6 hrs.
Effect of Combination of Oxybutynin and Cevimeline—In a separate human study, the combination of oxybutynin and cevimeline was administered to a healthy human subject. To the subject 5 mg of oxybutynin followed simultaneously by 30 mg of cevimeline, with no time delay, was administered. Saliva flow was measured as before. Results are shown in FIG. 5 (▪, square), where the combination is referred to as THVD-102.

[3] = system: healthy human subject; test: Stimulated saliva flow, case study of oxybutynin and pilocarpine alone and combined (Example 4); format: in vivo; details: FIG. 1; for amount of saliva flow collected over 2 minute periods after dosing (in words): single agent alone (oxybutynin HCl 5 mg; pilocarpine HCl), single healthy subject, 8 hour period; for time at which saliva flow reached the pre-dose level: single agent alone, post-dosing
Method: (§1) The following measurements are made just prior to and at frequent intervals for up to 6 hours post dose: • Salivary flow is determined by chewing Parafilm for 2 minutes • Dry mouth is determined by VAS • Urine volume/void and frequency over 6 hours post dose is measured • Blood samples are taken for pharmacokinetics at pre-dose, and at 0.5, 1, 2, 3, 4, and 6 hours post dose • Food and water intake are standardized over the 6 hour period
In this study, the effect of oxybutynin, pilocarpine, the combination of the two, and placebo was measured in six separate, yet identical, studies in a single individual.
Effect of Oxybutynin—A healthy human subject was given a 5 mg dose of oxybutynin HCl and the amount of salivation was measured with time over an 8 hour period. […]

[4] = Plasma concentration of oxybutynin after 5 mg oxybutynin alone or followed by 5 mg pilocarpine, four way crossover clinical trial; format: in vivo, human; details: 5 mg pilocarpine 30 min after 5 mg oxybutynin
Method: as §1
The study is a double blind, randomized, placebo-controlled, with 4 sequences (4 doses over 4 weeks) with the drugs being administered orally as a single dose. There is a One-week washout between study days. […]
Plasma Concentration of Oxybutynin—In a separate study, the plasma concentration of oxybutynin was measured in two groups of subjects: one group received 5 mg of oxybutynin alone and another group received 5 mg of oxybutynin followed by 5 mg pilocarpine after 30 min. The plasma concentrations were measured before the administration of oxybutynin and in hours 1, 2, 3, 4, and 6 after its administration. […]

[5] = Time −0.17 hr (pre-dose), text gives saliva flow in g/2 min

Cc1ccc(O)c([C@H](CCN(C(C)C)C(C)C)c2ccccc2)c1 (stereo in doubt) [tolterodine, (R)-2-[3-[bis(1-methylethyl-amino]-1-phenylpropyl]-4-methylphenol [R—(R*,R*)]-2,3-dihydroxybutanedionic acid]
time after which saliva flow started increasing again [1]: about 4 hrs | amount of saliva flow collected over 2 minute periods after dosing (in words) ([1]; 8 hour period, FIGS. 6 and 7): decreased | time at which saliva flow reached the pre-dose levels ([1]; not completely reached at end of observation): > 8 h

CCN(CC)CC#CCOC(=O)C(O)(c1ccccc1)C1CCCCC1 (stereo not shown) [Oxybutynin, oxybutynin]
time after which saliva flow started increasing again ([2]; 5 mg oxybutynin HCl alone, FIG. 5): 3 h | Amount of Saliva Collecetd over 2 min ([2]; Time 0 hr): 2.4536 | Amount of Saliva Collecetd over 2 min ([2]; Time 0.5 hr): 1.8558 | Amount of Saliva Collecetd over 2 min ([2]; Time 1 hr): 1.2308 | Amount of Saliva Collecetd over 2 min ([2]; Time 1.5 hr): 1.2326 | Amount of Saliva Collecetd over 2 min ([2]; Time 2 hr): 1.3548 | Amount of Saliva Collecetd over 2 min ([2]; Time 3 hr): 1.1829 | Amount of Saliva Collecetd over 2 min ([2]; Time 4 hr): 1.5868 | Amount of Saliva Collecetd over 2 min ([2]; Time 5 hr): 2.1475 | Amount of Saliva Collecetd over 2 min ([2]; Time 6 hr): 2.0096 | Amount of Saliva Collecetd over 2 min ([2]; Time 8 hr): 2.3028 | Amount of Saliva Collecetd over 2 min [2, 5]: 2.2208 | amount of saliva flow collected over 2 minute periods after dosing (in words) ([2]; FIG. 5): decreased | time at which saliva flow reached the pre-dose level ([2]; FIG. 5): 8 h | time after which saliva flow started increasing again ([3]; 5 mg oxybutynin HCl alone): 3 h | amount of saliva flow collected over 2 minute periods after dosing (in words) [3]: decreased | time at which saliva flow reached the pre-dose level [3]: 8 h

CC[C@@H]1C(=O)OC[C@@H]1Cc1cncn1C [pilocarpine]
time of peak saliva flow ([3]; pilocarpine HCl alone): half an hour | amount of saliva flow collected over 2 minute periods after dosing (in words) [3]: increased sharply | time at which saliva flow reached the pre-dose level [3]: about 5 hrs | effect of pilocarpine on the plasma concentration of oxybutynin [4]: does not affect the plasma concentration of oxybutynin at all

CC1OC2(CS1)CN1CCC2CC1 (stereo not shown) [Cevimeline, cevimeline]
time of peak saliva flow ([2]; 30 mg cevimeline alone, FIG. 5): close to two hours | Amount of Saliva Collecetd over 2 min ([2]; Time 0 hr): 2.6273 | Amount of Saliva Collecetd over 2 min ([2]; Time 0.5 hr): 2.7791 | Amount of Saliva Collecetd over 2 min ([2]; Time 1 hr): 4.1213 | Amount of Saliva Collecetd over 2 min ([2]; Time 1.5 hr): 4.6029 | Amount of Saliva Collecetd over 2 min ([2]; Time 2 hr): 3.7314 | Amount of Saliva Collecetd over 2 min ([2]; Time 2.5 hr): 3.7641 | Amount of Saliva Collecetd over 2 min ([2]; Time 3 hr): 3.5888 | Amount of Saliva Collecetd over 2 min ([2]; Time 3.5 hr): 3.9316 | Amount of Saliva Collecetd over 2 min ([2]; Time 4 hr): 3.5914 | Amount of Saliva Collecetd over 2 min ([2]; Time 5 hr): 2.6099 | Amount of Saliva Collecetd over 2 min ([2]; Time 6 hr): 2.205 | Amount of Saliva Collecetd over 2 min ([2]; Time 8 hr): 1.7973 | Amount of Saliva Collecetd over 2 min [2, 5]: 2.4808 | amount of saliva flow collected over 2 minute periods after dosing (in words) ([2]; FIG. 5): increased sharply | time at which saliva flow reached the pre-dose level ([2]; FIG. 5): about 6 hrs
